Source: PubChem BioAssay AID1918946 (Molecular Pharmacology Branch, DTP, NCI, 2023)
Values joined by “and” are separate entries in the source; they are usually repeats but may differ in a detail not shown here. Equal values may be shown once.

System: 885512-296-R-J2-PDC complex spheroid viability
Test: Anticancer human tumor 885512-296-R-J2-PDC patient-derived breast carcinoma cell line growth inhibition
Settings: for viability, T/C: stronger effect = lower value
Source text: Multicellular complex tumor spheroid response to LSD1 Inhibitor Iadademstat in combination with a variety of drugs and investigational agents in selected tumor cell lines
The current study was undertaken to assess response to LSD1 inhibitors in combination with standard-of-care drugs and investigational agents in solid tumor complex spheroid models as well as in the K-562 leukemia. Complex spheroids include a stromal component modeled by human endothelial cells (HUVEC) and fibroblasts modeled by human mesenchymal stem cells (MSCs). The concentration ranges selected for each drug and investigational agent were based upon clinically achievable concentrations if the clinical Cmax of the agent was known.
Compounds. The drugs and investigational agents used in this study are listed on Table 1. All of the agents used, including staurosporine (NSC755774) and gemcitabine (NSC613327), were obtained from the Developmental Therapeutics Program, NCI. FDA-approved anticancer drugs are available from the NCI at http://dtp.nci.nih.gov/branches/dscb/oncology_drugset_explanation.html. Drugs and investigational agents were >95% pure by proton nuclear magnetic resonance (NMR) and liquid chromatography/mass spectrometry (LC/MS). Stock solutions were prepared at 400x in DMSO, stored at -70 degrees C, and diluted in fresh medium prior to their use. The final concentration of DMSO in cell culture wells never exceeded 0.25% (v/v). The FDA-approved anticancer drug set is available from the Developmental Therapeutics Program at https://dtp.cancer.gov/organization/dscb/obtaining/available_plates.htm. All drugs and investigational agents were tested over a range starting from a high concentration at or near the clinical Cmax and decreasing in half-log increments. If the clinical Cmax for an agent had not been determined, the highest concentration tested was 10 microM.
Cell Lines. The patient-derived cancer cell (PDC) lines: 292921-168-R-J2-PDC, K24384-001-R-PDC, and 521955-158-R2-J5-PDC pancreatic carcinomas, 556581-035-R-J1 ovarian carcinoma, 324938-238-R-J1-PDC, 855422-203-R-J1-PDC and 883617-216-R-J1-PDC urothelial bladder carcinomas, 743489-274-T-PDC renal cell carcinoma, 138582-R-J1 Merkel cell tumor, K60290-347-R-J1 and K57222-313-R-J1-PDC glioblastomas, 653999-131-R-J2-PDC, LG0703-F948-PDC, and 349418-098-R-PDC non-small cell lung carcinomas, 885512-296-R-J2-PDC, 171881-019-R-J1-PDC breast carcinomas and 186277-243-T-J2-PDC and 233499-124-R-J2-PDC colon carcinomas were obtained from the NCI Patient-Derived Models Repository (PDMR, https://pdmr.cancer.gov). The established cell lines NCI/ADR-RES (RRID:CVCL_14520 and OVCAR-5 (RRID:CVCL_1628) ovarian carcinomas, 786-O (RRID:CVCL_1051) and A498 (RRID:CVCL_A498) renal cell carcinoma, NCI-H211 (ATCC, cat. CRL-5824; RRID:CVCL_1529), NCI-H196 (ATCC, cat. CRL-5823, RRID:CVCL_1509), SW 1271 (ATCC, cat. CRL-2177, RRID:CVCL_1716) and NCI-H1876 (ATCC, cat. CRL-5902, RRID:CVCL_1503) small cell lung carcinomas, MDA-MB-231 (RRID:CVCL_0062) and MDA-MB-468 (RRID:CVCL_0419)breast carcinomas (10-12). Pooled donor human umbilical vein endothelial cells (HUVEC, Lonza, cat. CC-2519) and human mesenchymal stem cells (hMSC, Lonza, cat. PT-2501) were purchased from Lonza (Walkersville, MD).
Cell Culture. All cells were maintained in an incubator at 37 degrees C and 5% CO2 with 95% humidity. The PDC lines were cultured according to standard operating procedures established by the NCI PDMR (https://pdmr.cancer.gov). Briefly all PDCs were thawed and cultured in Matrigel-coated flasks prepared with a working solution of 1X Ham's F-12 nutrient mix, without supplementation (Invitrogen, Waltham, MA, cat. 11765054), 100 U/mL penicillin-streptomycin (Invitrogen, cat. 15140122), and 2.5% Matrigel (Corning Inc., Corning, NY, cat. 354248) for the first three passages. […]

[1] = curve of first compound, second compound 0.1 µM
[2] = curve of first compound, second compound 0.316 µM
[3] = curve of first compound, second compound 1 µM
[4] = curve of first compound, second compound 3.16 µM
[5] = curve of first compound, second compound 10 µM
[6] = second compound 0.1 µM, first compound 0.000316 µM
[7] = second compound 0.1 µM, first compound 0.001 µM
[8] = second compound 0.1 µM, first compound 0.00316 µM
[9] = second compound 0.1 µM, first compound 0.01 µM
[10] = second compound 0.1 µM, first compound 0.0316 µM
[11] = second compound 0.1 µM, first compound 0.1 µM
[12] = second compound 0.316 µM, first compound 0.000316 µM
[13] = second compound 0.316 µM, first compound 0.001 µM
[14] = second compound 0.316 µM, first compound 0.00316 µM
[15] = second compound 0.316 µM, first compound 0.01 µM
[16] = second compound 0.316 µM, first compound 0.0316 µM
[17] = second compound 0.316 µM, first compound 0.1 µM
[18] = second compound 1 µM, first compound 0.000316 µM
[19] = second compound 1 µM, first compound 0.001 µM
[20] = second compound 1 µM, first compound 0.00316 µM
[21] = second compound 1 µM, first compound 0.01 µM
[22] = second compound 1 µM, first compound 0.0316 µM
[23] = second compound 1 µM, first compound 0.1 µM
[24] = second compound 3.16 µM, first compound 0.000316 µM
[25] = second compound 3.16 µM, first compound 0.001 µM
[26] = second compound 3.16 µM, first compound 0.00316 µM
[27] = second compound 3.16 µM, first compound 0.01 µM
[28] = second compound 3.16 µM, first compound 0.0316 µM
[29] = second compound 3.16 µM, first compound 0.1 µM
[30] = second compound 10 µM, first compound 0.000316 µM
[31] = second compound 10 µM, first compound 0.001 µM
[32] = second compound 10 µM, first compound 0.00316 µM
[33] = second compound 10 µM, first compound 0.01 µM
[34] = second compound 10 µM, first compound 0.0316 µM
[35] = second compound 10 µM, first compound 0.1 µM
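Further: spheroids exposed to agents for 7 days before viability read.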

## CC(C)CC(NC(=O)C(Cc1ccccc1)NC(=O)c1cnccn1)B(O)O (stereo not drawn) + NC1CCC(NC2CC2c2ccccc2)CC1
[1]
  IC50: 1.3 nM
[2]
  IC50: 1.34 nM
[3]
  IC50: 1.38 nM
[4]
  IC50: 1.33 nM
[5]
  IC50: 1.09 nM
[6]
  viability, T/C: 149%
[7]
  viability, T/C: 63.9%
[8]
  viability, T/C: 2.42%
[9]
  viability, T/C: 0.24%
[10]
  viability, T/C: 7.32%
[11]
  viability, T/C: 3.74%
[12]
  viability, T/C: 134%
[13]
  viability, T/C: 65.7%
[14]
  viability, T/C: 2.51%
[15]
  viability, T/C: 0.43%
[16]
  viability, T/C: 7.09%
[17]
  viability, T/C: 3.61%
[18]
  viability, T/C: 152%
[19]
  viability, T/C: 68.4%
[20]
  viability, T/C: 2.46%
[21]
  viability, T/C: 0.35%
[22]
  viability, T/C: 3.66%
[23]
  viability, T/C: 3.45%
[24]
  viability, T/C: 137%
[25]
  viability, T/C: 66.2%
[26]
  viability, T/C: 1.59%
[27]
  viability, T/C: 0.23%
[28]
  viability, T/C: 0.08%
[29]
  viability, T/C: 0.08%
[30]
  viability, T/C: 138%
[31]
  viability, T/C: 54%
[32]
  viability, T/C: 1.4%
[33]
  viability, T/C: 0.2%
[34]
  viability, T/C: 0.09%
[35]
  viability, T/C: 0.13%

## COc1cc(Nc2ncc3c(n2)-c2ccc(Cl)cc2C(c2c(F)cccc2OC)=NC3)ccc1C(=O)O + NC1CC1c1ccc(-c2cccc(O)c2)cc1
[1]
  IC50: < 3.16 nM
[2]
  IC50: < 3.16 nM
[3]
  IC50: < 3.16 nM
[4]
  IC50: < 3.16 nM
[5]
  IC50: < 3.16 nM
[8]
  viability, T/C: 32%
[9]
  viability, T/C: 34%
[10]
  viability, T/C: 17.9%
[11]
  viability, T/C: 23.5%
Second compound 0.1 µM, first compound 0.316 µM
  viability, T/C: 21.7%
Second compound 0.1 µM, first compound 1 µM
  viability, T/C: 20.1%
[14]
  viability, T/C: 30.3%
[15]
  viability, T/C: 35.4%
[16]
  viability, T/C: 20.9%
[17]
  viability, T/C: 21.7%
Second compound 0.316 µM, first compound 0.316 µM
  viability, T/C: 25.4%
Second compound 0.316 µM, first compound 1 µM
  viability, T/C: 19.1%
[20]
  viability, T/C: 33.5%
[21]
  viability, T/C: 35.8%
[22]
  viability, T/C: 20.4%
[23]
  viability, T/C: 21.6%
Second compound 1 µM, first compound 0.316 µM
  viability, T/C: 22.1%
Second compound 1 µM, first compound 1 µM
  viability, T/C: 19.6%
[26]
  viability, T/C: 27%
[27]
  viability, T/C: 29.8%
[28]
  viability, T/C: 19.8%
[29]
  viability, T/C: 13.2%
Second compound 3.16 µM, first compound 0.316 µM
  viability, T/C: 19.4%
Second compound 3.16 µM, first compound 1 µM
  viability, T/C: 15.4%
[32]
  viability, T/C: 15%
[33]
  viability, T/C: 20.2%
[34]
  viability, T/C: 14.2%
[35]
  viability, T/C: 8.64%
Second compound 10 µM, first compound 0.316 µM
  viability, T/C: 11.8%
Second compound 10 µM, first compound 1 µM
  viability, T/C: 12.7%

## NC1CC1c1ccc(-c2cccc(O)c2)cc1 (stereo not drawn)
Compound 0.1 µM
  viability, T/C: 133%
Compound alone, run of 02/01/2022
  IC50: > 10000 nM

## CC[C@@]1(O)C(=O)OCc2c1cc1n(c2=O)Cc2cc3c(CN(C)C)c(O)ccc3nc2-1 + NC1CC1c1ccc(-c2cccc(O)c2)cc1
[1]
  IC50: 0.93 nM
[2]
  IC50: 1.06 nM
[3]
  IC50: 0.805 nM
[4]
  IC50: 0.791 nM
[5]
  IC50: 0.592 nM
[6]
  viability, T/C: 92.2%
[7]
  viability, T/C: 47.2%
[8]
  viability, T/C: 4.42%
[9]
  viability, T/C: 3.26%
[10]
  viability, T/C: 2.54%
[11]
  viability, T/C: 1.68%
[12]
  viability, T/C: 97.2%
[13]
  viability, T/C: 52.5%
[14]
  viability, T/C: 4.34%
[15]
  viability, T/C: 2.93%
[16]
  viability, T/C: 1.9%
[17]
  viability, T/C: 1.67%
[18]
  viability, T/C: 92.2%
[19]
  viability, T/C: 40.2%
[20]
  viability, T/C: 5.01%
[21]
  viability, T/C: 3.22%
[22]
  viability, T/C: 2.56%
[23]
  viability, T/C: 1.7%
[24]
  viability, T/C: 91.8%
[25]
  viability, T/C: 39.3%
[26]
  viability, T/C: 4.57%
[27]
  viability, T/C: 2.89%
[28]
  viability, T/C: 1.84%
[29]
  viability, T/C: 1.56%
[30]
  viability, T/C: 72.7%
[31]
  viability, T/C: 31.1%
[32]
  viability, T/C: 3.84%
[33]
  viability, T/C: 3.11%
[34]
  viability, T/C: 2.42%
[35]
  viability, T/C: 1.6%

## CC1COCCN1c1cc(C2(S(C)(=N)=O)CC2)nc(-c2ccnc3[nH]ccc23)n1 (stereo not drawn)
Compound 0.0316 µM
  viability, T/C: 89.7% and 84.5%
Compound 0.1 µM
  viability, T/C: 69.7% and 90.6%
Compound 0.316 µM
  viability, T/C: 14.4% and 49.3%
Compound 1 µM
  viability, T/C: 7.6% and 9.02%
Compound 3.16 µM
  viability, T/C: 7.26% and 2.77%
Compound 10 µM
  viability, T/C: 7.13% and 1.85%
Curve of compound
  IC50: 151 nM and 317 nM

## O=C(C=Cn1cnc(-c2cc(C(F)(F)F)cc(C(F)(F)F)c2)n1)NNc1cnccn1
Compound 0.00316 µM
  viability, T/C: 31.1% and 23.7%
Compound 0.01 µM
  viability, T/C: 5.75% and 8.41%
Compound 0.0316 µM
  viability, T/C: 3.88% and 2.23%
Compound 0.1 µM
  viability, T/C: 6.09% and 0.68%
Compound 0.316 µM
  viability, T/C: 7.95% and 0.57%
Compound 1 µM
  viability, T/C: 6.27% and 0.53%
Curve of compound
  IC50: < 3.16 nM

## CC1(C)CCC(CN2CCN(c3ccc(C(=O)NS(=O)(=O)c4ccc(NCC5CCOCC5)c([N+](=O)[O-])c4)c(Oc4cnc5[nH]ccc5c4)c3)CC2)=C(c2ccc(Cl)cc2)C1
Compound 0.0316 µM
  viability, T/C: 121% and 95.1%
Compound 0.1 µM
  viability, T/C: 109% and 91%
Compound 0.316 µM
  viability, T/C: 89.3% and 82%
Compound 1 µM
  viability, T/C: 72.6% and 61.4%
Compound 3.16 µM
  viability, T/C: 63.1% and 19.3%
Compound 10 µM
  viability, T/C: 10.2% and 0.17%
Curve of compound
  IC50: 3310 nM and 1320 nM
